These are literature values, as cited in patent US9426985B2, “Compositions and methods to modulate the rate of EBIS production from dithiocarbamate fungicides” (Dow Agrosciences LLC, priority 2012, dated 2016).

For data set [1] the following is noted: tomato leaves.

As for `S=C1SSC2=NCCN12` [EBIS, ethylene bisisthiocyanate sulfide], the “half-life on the leaf surface” value was “less than 2 days”.
On to mancozeb, for which the “time to peak EBIS levels after application” value in data set [1] is given as “about two”.
